Measurements: ChEMBL document CHEMBL1149514, “Tetrahydrofluorenones with conformationally restricted side chains as selective estrogen receptor beta ligands” (Bioorg Med Chem Lett, 2006)

Experiments:
[1] = target: T1, Estrogen receptor (Homo sapiens, UniProt P03372)
T1 sequence (P03372 whole entry): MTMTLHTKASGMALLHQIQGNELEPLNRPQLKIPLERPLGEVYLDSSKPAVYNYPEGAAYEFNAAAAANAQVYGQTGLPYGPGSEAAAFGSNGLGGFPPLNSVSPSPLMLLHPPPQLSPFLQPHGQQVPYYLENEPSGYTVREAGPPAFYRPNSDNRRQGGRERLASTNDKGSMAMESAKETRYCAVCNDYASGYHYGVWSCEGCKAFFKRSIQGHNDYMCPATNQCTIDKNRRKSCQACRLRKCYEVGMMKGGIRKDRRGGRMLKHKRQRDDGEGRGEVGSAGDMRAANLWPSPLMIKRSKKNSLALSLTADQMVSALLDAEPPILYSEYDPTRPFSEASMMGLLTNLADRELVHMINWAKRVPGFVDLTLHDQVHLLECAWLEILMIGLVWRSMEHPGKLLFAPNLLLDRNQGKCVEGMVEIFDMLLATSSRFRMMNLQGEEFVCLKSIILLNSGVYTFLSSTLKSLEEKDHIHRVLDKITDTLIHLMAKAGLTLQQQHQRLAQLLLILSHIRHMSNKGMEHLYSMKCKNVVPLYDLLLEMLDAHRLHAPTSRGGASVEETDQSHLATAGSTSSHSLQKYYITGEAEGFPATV
Description: Binding affinity to human recombinant ERalpha by scintillation proximity assay

[2] = target: Estrogen receptor beta (Homo sapiens, UniProt Q92731)
Estrogen receptor beta, sequence (Q92731 whole entry): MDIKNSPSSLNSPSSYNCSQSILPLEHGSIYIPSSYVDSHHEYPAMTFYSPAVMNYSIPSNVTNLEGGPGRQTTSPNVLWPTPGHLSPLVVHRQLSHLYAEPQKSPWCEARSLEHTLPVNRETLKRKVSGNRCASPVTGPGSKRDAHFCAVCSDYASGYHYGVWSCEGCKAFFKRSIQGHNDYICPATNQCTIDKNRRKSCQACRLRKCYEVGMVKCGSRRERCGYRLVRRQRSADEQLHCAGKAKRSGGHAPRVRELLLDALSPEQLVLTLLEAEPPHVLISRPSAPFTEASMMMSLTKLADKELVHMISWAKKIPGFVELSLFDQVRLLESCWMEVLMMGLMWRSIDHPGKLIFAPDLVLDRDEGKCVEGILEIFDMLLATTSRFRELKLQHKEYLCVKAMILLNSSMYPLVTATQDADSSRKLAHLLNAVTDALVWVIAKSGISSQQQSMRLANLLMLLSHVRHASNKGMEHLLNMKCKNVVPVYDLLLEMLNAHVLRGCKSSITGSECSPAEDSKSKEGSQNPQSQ
Description: Binding affinity to human recombinant ERbeta by scintillation proximity assay

| IC50 [1] [µM] | IC50 [2] [µM] | Compound |
| --- | --- | --- |
| 0.605 | 0.141 | CCC[C@H]1CC[C@@H]2C[C@]13Cc1cc(O)ccc1C3=C(C)C2=O |
| 0.31 | 0.045 | CC[C@H]1CC[C@@H]2C[C@]13Cc1cc(O)ccc1C3=C(C)C2=O |

More lines, now with the values behind:

| Compound | IC50 [1] [µM] | IC50 [2] [µM] |
| --- | --- | --- |
| CCC[C@@H]1CC[C@@H]2C[C@]13Cc1cc(O)ccc1C3=C(C)C2=O | 0.084 | 0.005 |
| CC[C@@H]1CC[C@@H]2C[C@]13Cc1cc(O)ccc1C3=C(C)C2=O | 0.146 | 0.005 |
| CC1=C2c3ccc(O)cc3C[C@@]23CCC[C@H](C3)C1=O | 0.414 | 0.011 |
| CC1=C2c3ccc(O)cc3C[C@@]23CC[C@H](C3)C1=O | 0.793 | 0.012 |
